Assay results as given in patent US6376536B1, “Quaternary ammonium salts and their use” (Takeda Chemical Industries, Ltd., priority 1998, dated 2002).
Counter-ions that a name gives are not always drawn. One block for each molecule: values may come before it.

How the values were obtained:
[1] = system: HIV-1 BA-L; assay: Inhibitory effect on HIV-1 infection to human PBMC (p24 antigen ELISA); type: cell-based; conditions: Human immunodeficiency virus 1, BAL, 0.032 μM Test Compound solution, p24 antigen in supernatant
Experimental: From normal person human peripheral blood mononuclear cells (PBMC) were separated, and the cells were stimulated with 10 μg/ml of PHA (Phytohemaglutinin) and 20 U/ml of interleukin-2 (IL-2) for 3 days. The cells were suspended in RPMI-1640 medium containing 20% serum to prepare 1×10 ^6/ml suspension. To the suspension were infected HIV-1 BA-L cells (20 ng as an amount of p24 antigen), and viruses were absorbed at 37° C. for 2 hours. The cells were washed and suspended in RPMI-1640 medium containing 20% serum and IL-2 20 U/ml to prepare 1×10^5/ml suspension. To the PBMC suspension was added the same amount of a solution which contains 0.032 μM of Test Compound, and the cells were cultivated at 37° C. in carbon dioxide gas incubator. The amount of p24 antigen in supernatant of the cultivated medium was determined by enzyme-linked immunosorbent assay (ELISA) and defined as degree of HIV-1 infection.

[2] = system: HIV-1 BA-L; assay: Inhibitory effect on HIV-1 infection to MAGI-CCR5 cell; type: cell-based; conditions: Human immunodeficiency virus 1, BAL, 48 h; 0.064 μM Test Compound medium; MAGI-CCR5 cells; 300 PFU HIV-1 BA-L; 2 days; blue cell count
Experimental: The plasmid where β-galactosidase gene was ligated downstream of HIV-1 LTR was introduced into CD4 positive HeLa cell, to which human CCR5 was further introduced to obtain transformant MAGI-CCR5. By using said transformant MAGI-CCR^5, degree of HIV-1 infection was calculated from β-galactosidase activity (blue color due to decomposition of 5-bromo-4-chloro-3-indolyl-β-D-galactopyranoside). Specifically, MAGI-CCR5 cells were suspended in DMEM medium containing 10% serum to prepare 5×10^4 cells/ml suspension. To each well of 96 well plate was inoculated 200 μl of the suspension, and the cells were cultivated at 37° C. overnight. The medium was removed by means of suction, and to the residue was added 100 μl of the above medium containing 0.064 μM of Test Compound and 100 μl of the above medium containing 300 PFU of HIV-1 BA-L cells. The cells were cultivated at 37° C. for 2 days. The medium was removed by means of suction. To the residue was added 200 μl of cell fixative (PBS containing 1% formaldehyde and 0.2% glutaraldehyde), and the mixture was allowed to stand at room temperature for 5 minutes and washed twice with PBS. […] The number of blue cells was counted by microscope and defined as the number of cells infected with HIV-1.

[3] = molecular target: T1, human CCR5 (Homo sapiens, UniProt P51681); assay: [125I]-RANTES binding inhibition on CHO/CCR5 cells; conditions: Test Compound 1 μM, 100 pM [125I]-RANTES
T1 construct: expressed in transfected cells; plasmid pCKR5 = pcDNA3.1 with about 1.0 kb CCR5 insert
T1 sequence (P51681 whole entry): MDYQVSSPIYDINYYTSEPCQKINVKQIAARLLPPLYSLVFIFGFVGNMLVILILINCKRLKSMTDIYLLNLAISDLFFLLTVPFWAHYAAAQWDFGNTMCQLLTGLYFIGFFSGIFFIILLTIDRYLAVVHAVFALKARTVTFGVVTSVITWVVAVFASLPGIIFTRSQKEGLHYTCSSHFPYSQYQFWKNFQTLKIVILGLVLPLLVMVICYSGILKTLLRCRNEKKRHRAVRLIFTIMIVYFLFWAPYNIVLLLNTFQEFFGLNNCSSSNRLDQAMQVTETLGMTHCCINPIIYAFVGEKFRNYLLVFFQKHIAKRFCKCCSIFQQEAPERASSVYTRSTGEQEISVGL
Experimental: CHO-K1 cells were grown in 750 ml of tissue culture flask (Becton Dickinson) using Ham's F12 medium (Nihon Pharmaceutical) containing 10% fetal calf serum (Life Tech Oriental) and took off with 0.5 g/L trypsin-0.2 g/L EDTA (Life Tech Oriental). The cells were washed with PBS (Life Tech Oriental), centrifuged (1000 rpm, 5 minutes), and suspended in PBS. With using Gene Pulser (Bio-Rad Laboratories), DNA was introduced into the cells under the conditions shown below. That is, to the cuvette of 0.4 cm gap were added 8×10^6 cells and 10 μg of plasmid pCKR5 for expression of human CCR5, and electroporation was carried out under 0.25 kV of voltage and 960 μF. of capacitance. The cells where transferred into Ham's F12 medium (Nihon Pharmaceutical) containing 10% fetal calf serum, and cultivated for 24 hours. The cells were again took off and centrifuged, and suspended in Ham's F12 medium (Nihon Pharmaceutical) containing 10% fetal calf serum and 500 μg/ml of geneticin (Life Tech Oriental). […] Radioactivity was determined with γ-counter to select CHO/CCR5 cells which specifically bind to the ligand.
The CHO/CCR5 were inoculated on 96 well microplate (5×10^4 cells/well) and cultivated for 24 hours. […] Radio-activity was determined with TopCount Micro Scintillation Counter (Packard Instrument, Inc.). […]

- melting point: 200 to 204 °C
Compound: CCOc1ccc(-c2ccc3c(c2)C=C(C(=O)Nc2ccc(C[N+](C)(C)C4CCOCC4)cc2)CCO3)cc1 (as salt: chloride) [Compound 3, N-(4-(((7-(4-ethoxyphenyl)-2,3-dihydro-1-benzoxepin-4-yl)carbonyl)amino)benzyl)-N,N-dimethyl-N-(4-tetrahydropyranyl)ammonium chloride]

Compound: Cc1ccc(-c2ccc3c(c2)C=C(C(=O)Nc2ccc(C[N+](C)(C)C4CCOCC4)cc2)CCC3)cc1 [Compound 1, N,N-dimethyl-N-(4-(((2-(4-methylphenyl)-6,7-dihydro-5H-benzocyclohepten-8-yl)carbonyl)amino)benzyl)-N-(4-tetrahydropyranyl)ammonium chloride]
- inhibition at 0.032 µM [1]: 74%
- inhibition at 0.064 µM [2]: 100%

- Inhibition Rate (%) to CCR5 binding [3]: 96%
Compound: Cc1ccc(-c2ccc3c(c2)C=C(C(=O)Nc2ccc(C[N+](C)(C)C4CCC(=O)CC4)cc2)CCO3)cc1.[Cl-] [Compound 2]
